{"source": "patent US20230183187A1", "about": "“QUINAZOLINE COMPOUNDS AS INHIBITORS OF PREMATURE TERMINATION CODONS” (CENTRE NATIONAL DE LA RECHERCHE SCIENTIFIQUE, priority 2020, published 2023)", "key": {"[1]": {"test_system": "p53 (endogenous nonsense mutation R213X) in HDQ-P1 cells", "assay": "Western blot of full-length p53 in HDQ-P1 cells", "format": "cell-based, human", "settings": "HDQ-P1, 48 h", "description": "HDQ-P1 cells (R213X) were treated with G418 ([…]), or the selected molecules (TLN68 50 μM, TLN1399 50 μM, TLN236 30 μM and TLN309 40 μM), for 48 h. Cells were harvested by treatment with trypsin—EDTA (Invitrogen), lysed in 350 mM NaCl, 50 mM Tris—HCl pH 7.5, 1% NP-40, and protease inhibitor cocktail (Roche) and disrupted by passage through a syringe.\nTotal proteins were quantified with Bradford reagent (Biorad) and extracts were denatured by incubation in Laemmli buffer for 5 minutes at 90° C. The inventors subjected 30 μg of total protein from HDQ-1 cells to SDS—PAGE in 4/10% Bis—Tris gels. Proteins were transferred onto nitrocellulose membranes, according to the manufacturer's instructions (Biorad). Membranes were saturated by overnight incubation in 5% skimmed milk powder in PBS, and incubated for 1 hour with the primary monoclonal antibody, DO-1 (N-terminal epitope mapping between amino acid residues 11 and 25 of p53; Santa Cruz Biotechnologies, 1/400) or a monoclonal antibody against mouse actin (Millipore, 1/2000). After three washes in PBS supplemented with 0.1% Tween, the membranes were incubated with the secondary antibody [horseradish peroxidase-conjugated anti-mouse IgG ( 1/2500)] for 45 minutes. The membranes were washed five times and chemiluminescence was detected with ECL Prime Western Blotting Detection Reagents (Amersham, GE Healthcare). The signal was quantified with ImageJ software."}, "[2]": {"test_system": "TP53-R213X mRNA", "assay": "RT-qPCR of mutant p53 mRNA in HDQ-P1 cells", "format": "cell-based, human", "settings": "HDQ-P1, 48 hours; TLN68 80 μM, TLN309 40 μM; n=3", "description": "For the analysis of mRNA levels for p53 and its transcriptional target genes, Bax, the inventors extracted total RNA from HDQ-P1 cells that had or had not been treated with G418 (400 μM) or TLN68 (80 μM) for 48 hours (RNeasy Mini Kit, Qiagen). The RNA was treated with DNAse I (RNase-free DNase) and quantified with a Nanodrop spectrometer (ThermoScientific). The absence of RNA degradation was confirmed by agarose gel electrophoresis. The first-strand cDNA was synthesized from 2 μg of total RNA, with random primers and the SuperScript II Reverse Transcriptase (Invitrogen), as recommended by the manufacturer. Quantitative PCR was then carried out on equal amounts of the various cDNAs, with a CFX96 thermocycler (Biorad), and the accumulation of products was monitored with the intercalating dye FastStart Universal SYBRGreen Master (ROX) reagent (Roche). The inventors quantified mRNA levels relative to three reference mRNAs: RPL32, Hprt1 and HMBS. In each experiment, results are expressed relative to those for untreated cells, for which the value obtained was set to 1. Relative levels of gene expression were calculated at early stages of PCR, when the amplification was exponential and might, therefore, be correlated with the initial number of copies of the transcript. […] For the quantification of each mRNA, three independent experiments (from biological replicates) were performed in triplicate. […]"}, "[3]": {"test_system": "40 more frequent nonsense mutations found in DMD gene", "assay": "Dual reporter readthrough on the 40 most frequent DMD nonsense mutations", "format": "cell-based", "design": "number of DMD nonsense sequences on which readthrough is promoted: dose or concentration left out as unconfirmed", "text": "Complementary oligonucleotides corresponding to TP53 R213X nonsense mutations and 9 nucleotides on both sides are ligated into the pAC99 dual reporter plasmid, as previously described (Premature stop codons involved in muscular dystrophies show a broad spectrum of readthrough efficiencies in response to gentamicin treatment, Bidou et al, Gene Therapy 1 Apr. 2004, 11(7):619-627). This dual reporter is used to quantify stop-codon readthrough through the measurement of luciferase and beta-galactosidase (internal calibration) activities, as previously described (Stahl et al, Versatile vectors to study recoding: conservation of rules between yeast and mammalian cells. Nucleic Acids Res 1995; 23:1557-60). Readthrough levels for nonsense mutations were analysed in the presence or absence of tested molecules. Cells were seeded in a 6-well plate. […] The following day, they are rinsed with fresh medium, with or without readthrough inducers. […] Readthrough efficiency was estimated by calculating the ratio of luciferase activity to beta-galactosidase activity obtained with the test construct, with normalisation against an in-frame control construct. […]\nEach nonsense mutation (+9 nucleotides in each side) has been cloned into the dual reporter previously used. Stop codon readthrough efficiency has been quantified either without drug or in presence of gentamicin or TLN68, in 6 independent experiments. […]"}, "[4]": {"test_system": "-1 programmed ribosomal frameshifting from HIV-1", "assay": "Frameshifting test, dual reporter, NIH3T3 cells", "format": "cell-based, mouse", "settings": "NIH3T3, TLN68 80 μM, HIV-1 frameshift signal", "description": "To determinate if TLN68 alter global translational fidelity or if it is specific of readthrough event the inventors tested capacity of this molecule to induce frameshifting. They used a frameshift target which have already been used to study the minus1 frameshift signal of the retrovirus HIV-1 (Stahl et al, 1995). This 54 nucleotide sequence was inserted in the dual reporter vector and used to transfect NIH3T3 cells. Transfected cells were treated or not with TLN68 at 80 μM."}, "[5]": {"test_system": "+1 programmed ribosomal frameshifting from OAZ1 gene", "assay": "Frameshifting test, dual reporter", "format": "cell-based", "settings": "treated vs untreated cells (FIG. 8)", "text": "TLN468 has no impact on both −1 and +1 programmed ribosomal frameshifting (PRF). No significant difference is observed between treated and untreated cells (right and left bars respectively). TLN468 has been tested on −1 PRF from HIV-1 and +1 PRF from OAZ1 gene."}, "[6]": {"test_system": "NIH3T3 cells", "assay": "WST1 tetrazolium viability assay, NIH3T3", "format": "cell-based, mouse", "settings": "NIH3T3, 24 h, maximal dose used", "description": "The inventors tested the effect of TLN68 on viability of NIH3T3, HDQ-P1 and HeLa cell lines by using a tetrazolium salt which is cleaved only by metabolically active cells. Cells were treated or not with a range of TLN68 doses during 24 h and viability was measured."}}, "data": [{"smiles": "Cc1nc(NC(=N)N)nc2ccccc12", "note": "[TLN68]", "values": [{"measurement": "level of induction of full-length p53 compared with G418", "setting": "[1]; G418 10 and 20 mM", "result": "even higher to the one obtained in presence of G418"}, {"measurement": "production of the full-length p53 (western blot)", "setting": "[1]; TLN68 50 μM, TLN236 30 μM, TLN309 40 μM", "result": "stimulate the production of the full-length p53"}, {"measurement": "stabilisation of TP53-R213X mRNA relative to untreated", "setting": "[2]", "result": 6, "unit": "fold"}, {"measurement": "readthrough compared with gentamicin on the DMD set of sequences", "setting": "[3]; gentamicin 2.5 mM, same conditions", "result": "outperforms gentamicin"}, {"measurement": "number of DMD nonsense sequences on which readthrough is promoted", "setting": "[3]; out of 40 tested, 6 independent experiments", "result": 28}, {"measurement": "impact on -1 translational frameshifting", "setting": "[4]", "result": "no impact on translational frameshifting"}, {"measurement": "impact on +1 programmed ribosomal frameshifting", "setting": "[5]", "result": "no impact"}, {"measurement": "viable cells", "setting": "[6]", "result": 80, "unit": "%"}]}]}
